In US9783510B2, “Small molecule mediated transcriptional induction of E-cadherin” (Vanderbilt University, priority 2014, dated 2017):

Experiments:
[1] = test system: E-cadherin expression in H520 cells; experiment: E-cadherin expression, in-cell Western (ICW), H520 cells; assay type: cell-based; details: Homo sapiens, NCI-H520; for fold induction at 10 µM: change in expression level of E-cadherin in response to 10 μM compound, 24 hours, H520 cells; for EC50: inducement of E-cadherin expression in H520 cells
Protocol: SW620 and H520 cells (5×10^4/100 μL) were seeded in a 96-well plate prior to treatment. Cells were treated with 10 μM concentration of synthesized compound in quadruplicate for 24 hours in RPMI 1640 supplemented medium and 100 μg/mL penicillin-streptomycin. The cells were then fixed with 100% methanol for 20 minutes at 4° C. The wells were then washed 2 times with PBS, permeabilized in 2% bovine serum albumin (BSA) and 0.2% TritonX-100 in PBS for 30 minutes at room temperature with gentle agitation, and blocked in LI-COR blocking buffer for 30 minutes at room temperature with gentle agitation. The cells were then incubated with the following primary antibodies: anti-E-Cadherin (1:500) and anti-α-Tubulin (1:1000) diluted in blocking buffer (1:1 dilution in PBS) for 2 hours at room temperature with gentle agitation. The cells were washed 4 times in PBS-T for 5 minutes each, and then incubated with the following secondary antibodies conjugated to a fluorescent entity: IRDye 800-conjugated goat anti-rabbit IgG (1:1000) and IRDye-700-conjugated goat anti-mouse IgG (1:2000) in blocking buffer (1:1 dilution in PBS) with gentle agitation for 1 h at room temperature. The cells were washed 4 times in PBS-T for 5 minutes each followed by a single wash with PBS. All liquid was removed from the wells and the plates were visualized and analyzed on the Odyssey IR imaging system (LI-COR Biosciences).
The assay was further optimized in the following manner. The cells were washed 2 times with PBS, fixed in 100% methanol at room temperature for 15 minutes, and again washed 2 times with PBS. The cells were then incubated with the following primary antibodies: anti-E-Cadherin (1:200) and anti-α-Tubulin (1:2000) diluted in ice cold 2% bovine serum albumin (BSA) and 0.2% TritonX-100 in PBS for 1 hour at room temperature with gentle agitation. The cells were washed 2 times in PBS and then incubated with the following secondary antibodies conjugated to a fluorescent entity: Licor 800-conjugated goat anti-rabbit IgG (1:2000) and IRDye-700-conjugated goat anti-mouse IgG (1:2000) in ice cold 2% BSA and 0.2% TritonX-100 in PBS with gentle agitation for 45 minutes at room temperature. The wells were washed 2 times in PBS, dried, and analyzed as previously mentioned.
Changes in expression level of E-cadherin in response to 10 μM compound in H520 cells was determined in a cell-based functional assay as described above, and the data are shown in Table IV. The compound number corresponds to the compound numbers used in Table II.
EC50 of inducement of E-cadherin expression in H520 cells was determined in a cell-based functional assay as described above, and the data are shown in Table VI. The compound number corresponds to the compound numbers used in Table II.

[2] = test system: E-cadherin expression in SW620 cells; experiment: E-cadherin expression, in-cell Western (ICW), SW620 cells; assay type: cell-based; details: for fold induction at 10 µM: SW-620, 24 h; for EC50: inducement of E-cadherin expression in SW620 cells
Summary of the method: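 SW620 cells were treated with compound for 24 h in RPMI 1640 (single-point at 10 μM; EC50 also determined), in quadruplicate. After methanol fixation, in-cell Western with anti-E-cadherin and anti-α-tubulin primaries and IRDye 800/700 secondaries. Read on an Odyssey IR imager.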

HMEC-1 cells = experiment: E-cadherin, VE-cadherin, Vimentin and histone marks in HMEC-1 cells (qPCR, Western blot); assay type: cell-based, human; details: after 48 hours of treatment
[3] = test system: proximal region of the E-cadherin promoter (Cdh1) in SW620inv cells; experiment: ChIP assay at proximal E-cadherin promoter, SW620inv cells; assay type: cell-based; details: ChIP (FIG. 8)
[4] = test system: E-cadherin, H3K9Ac, H3K4me3, H3K27me3, H3K4me2 in SW620inv cells; experiment: Western blot time course of E-cadherin and histone H3 marks, SW620inv cells; assay type: cell-based
cyclin D1 protein = experiment: Cyclin D1 protein by ICW (control for cycloheximide); assay type: cell-based; details: within the 7 hour experimental interval
Protocol: Compound 13 increased the mRNA levels of E-cadherin specific mRNA by 27-fold in SW620inv cells (FIG. 3B) and by 20-fold in H520 cells (FIG. 3C) by 6 hours post-treatment. […] Whether de novo protein synthesis was required for the effect of Compound 13 on E-cadherin mRNA expression was determined. For these experiments, cells were treated with cycloheximide prior to application of Compound 13 and the expression of E-cadherin mRNA was evaluated 6 hours post-treatment for best sensitivity. The levels of cyclin D1 protein, known to have a very short half-life of ˜20 minutes (Diehl, J. A., et al. (1998) Genes & Development 12, 3499-3511), were analyzed as a positive control for the effectiveness of cycloheximide (CHX) treatment.
Referring to FIG. 4B and FIG. 4C, quantification of cyclin D1 protein by ICW, as described above, and under similar conditions as in (4A) at 6 h post-treatment with or without cyclohexamide.

[5] = Homo sapiens, change in expression level of E-cadherin in response to 10 μM compound, 24 hours, SW620 cells

| Compound | fold induction at 10 µM [1] | fold induction at 10 µM [2, 5] | EC50 ([2]; Homo sapiens, SW-620) [µM] | other results |
| --- | --- | --- | --- | --- |
| O=C(Cc1ccccc1O)NCCNC(=O)c1cc(-c2ccccc2)on1 [Compound 1, N-(2-(2-(2-hydroxyphenyl)acetamido)ethyl)-5-phenylisoxazole-3-carboxamide] | 3.51 | 3.4 | 3.7 | EC50 [1]: 5.6 µM |
| O=C(NCCNC(=O)c1cc(Br)ccc1O)c1cc(-c2ccccc2)on1 [Compound 2, N-(2-(5-bromo-2-hydroxybenzamido)ethyl)-5-phenylisoxazole-3-carboxamide] | 1.14 | 1.18 | – | – |
| O=C(NCCNC(=O)c1cc(-c2ccccc2)on1)c1ccncc1 [Compound 4, N-(2-(isonicotinamido)ethyl)-5-phenylisoxazole-3-carboxamide] | 2.87 | 2.79 | 8.8 | EC50 [1]: 5.1 µM |
| O=C(NCCNC(=O)c1nccs1)c1cc(-c2ccccc2)on1 [Compound 5, 5-phenyl-N-(2-(thiazole-2-carboxamido)ethyl)isoxazole-3-carboxamide] | 4.22 | 8.98 | 4.8 | – |
| Nc1ncn([C@@H]2O[C@H](CO)[C@@H](O)[C@H]2O)c(=O)n1 [Compound 5-Aza, 5-azacytidine] | – | – | – | restoring E-cadherin in HMEC-1 cells (HMEC-1 cells): neither TSA nor 5-Aza, nor the combination of these two agents, was effective |
| O=C(NCCCNC(=O)c1cc(F)ccc1O)c1cc(-c2ccccc2)on1 [Compound 20, N-(3-(5-fluoro-2-hydroxybenzamido)propyl)-5-phenylisoxazole-3-carboxamide] | 5.27 | 2.43 | 5 | EC50 [1]: 1.4 µM |
| O=C(Cc1ccccc1O)NCCCNC(=O)c1cc(-c2ccccc2)on1 [Compound 21, N-(3-(2-(2-hydroxyphenyl)acetamido)propyl)-5-phenylisoxazole-3-carboxamide] | 5.92 | 4.92 | 4.97 | EC50 [1]: 1.5 µM |
| O=C(NCCCNC(=O)c1n[nH]c2ccccc12)c1cc(-c2ccccc2)on1 [Compound 22, N-(3-(1H-indazole-3-carboxamido)propyl)-5-phenylisoxazole-3-carboxamide] | 1.88 | 1.62 | – | – |
| CCc1ccc(C(=O)NCCCNC(=O)c2cc(-c3ccccc3)on2)o1 [Compound 115, N-(3-(5-ethylfuran-2-carboxamido)propyl)-5-phenylisoxazole-3-carboxamide] | – | 3.83 | – | – |
| Cn1cnc(C(=O)NCCCNC(=O)c2cc(-c3ccccc3)on2)c1 [Compound 116, N-(3-(1-methyl-1H-imidazole-4-carboxamido)propyl)-5-phenylisoxazole-3-carboxamide] | – | 2.6 | – | – |
| O=C(NCCCNC(=O)c1cnn[nH]1)c1cc(-c2ccccc2)on1 [Compound 117, N-(3-(1H-1,2,3-triazole-5-carboxamido)propyl)-5-phenylisoxazole-3-carboxamide] | – | 3.71 | – | – |
| Nc1cncc(C(=O)NCCCNC(=O)c2cc(-c3ccccc3)on2)n1 [Compound 118, N-(3-(6-aminopyrazine-2-carboxamido)propyl)-5-phenylisoxazole-3-carboxamide] | – | 4.38 | 5.45 | – |
| O=C(NCCCNC(=O)c1cc(-c2ccccc2)on1)c1cc(-c2ccccc2)ccn1 [Compound 119, 5-phenyl-N-(3-(4-phenylpicolinamido)propyl)isoxazole-3-carboxamide] | – | 4.13 | 5.64 | – |
| O=C(NCCCNC(=O)c1cccc(C(F)(F)F)n1)c1cc(-c2ccccc2)on1 [Compound 120, 5-phenyl-N-(3-(6-(trifluoromethyl)picolinamido)propyl)isoxazole-3-carboxamide] | – | 3.08 | – | – |
| O=C(NCCCNC(=O)C1CCCCO1)c1cc(-c2ccccc2)on1 (centres unmarked) [Compound 121, 5-phenyl-N-(3-(tetrahydro-2H-pyran-2-carboxamido)propyl)isoxazole-3-carboxamide] | – | 3.74 | – | – |
| O=C(NCCNC(=O)c1cc(F)ccc1O)c1cc(-c2ccccc2)[nH]n1 [Compound 122, N-(2-(5-fluoro-2-hydroxybenzamido)ethyl)-5-phenyl-1H-pyrazole-3-carboxamide] | 1.04 | 1.45 | – | – |
| O=C(Cc1ccccc1O)NCCNC(=O)c1cc(-c2ccccc2)[nH]n1 [Compound 123, N-(2-(2-(2-hydroxyphenyl)acetamido)ethyl)-5-phenyl-1H-pyrazole-3-carboxamide] | 1.24 | 1.37 | – | – |
| O=C(NCCNC(=O)c1cc(-c2ccccc2)[nH]n1)c1ccncc1 [Compound 124, N-(2-(5-phenyl-1H-pyrazole-3-carboxamido)ethyl)isonicotinamide] | 1.22 | 1.29 | – | Pol II association with the E-cadherin proximal promoter [3]: did not show any effect |
| O=C(NCCNC(=O)c1nccs1)c1cc(-c2ccccc2)[nH]n1 [Compound 125, N-(2-(5-phenyl-1H-pyrazole-3-carboxamido)ethyl)thiazole-2-carboxamide] | 1.1 | 1.77 | – | – |
| CC(/C=C/C(=O)NO)=C\[C@@H](C)C(=O)c1ccc(N(C)C)cc1 [TSA, trichostatin A] | – | – | – | restoring E-cadherin in HMEC-1 cells (HMEC-1 cells): neither TSA nor 5-Aza, nor the combination of these two agents, was effective; modification of the repressive marker H3K27me3 [4]: Less overall modification; time of peak of H3K9Ac and H3K4me3 levels ([4]; 0.33 μM TSA): 6 h; time at which increase in H3K9Ac and H3K4me3 levels is first observed ([4]; 10 μM Compound 13, 0.33 μM TSA): 1 h |
| C[C@@H]1C[C@@H]([C@H](O)CC2CC(=O)NC(=O)C2)C(=O)[C@@H](C)C1 [cycloheximide] | – | – | – | cyclin D1 levels (cyclin D1 protein): markedly reduced; β-actin protein levels (cyclin D1 protein): not significantly altered |
| N-(3-(5-chlorofuran-2-carboxamido)propyl)-5-phenylisoxazole-3-carboxamide [Compound 113] | – | – | – | fold change SW620 ICW ([2]; change in expression level of E-cadherin in response to 10 μM compound, 24 hours, SW620 cells): 4.09 fold; EC50 [2]: 4.59 µM |
